The values below come from patent EP0321274A1, “Derivatives of thioformamide” (RHONE POULENC RORER LIMITED, priority 1987, dated 1989).

One assay deals with isolated rat aorta. The experiment in a line: Test A: activity against contractions induced by low K⁺ concentrations (20 mM K⁺) in the isolated rat aorta. It counts as cell-based. The conditions noted are these: concentration reducing the 20 mM K⁺-induced contraction by 90%; rat thoracic aorta strips denuded of endothelium; read-out: Activity Test A EC₉₀. As to the method: The test methods used were adapted from those described by Winslow et al [Eur.J.Pharmacol., 131, 219-228 (1986)] and Karaki [J.Pharmacol. Methods, 18, 1-21 (1987)] for differentiating vaso-relaxant activity.
Test A : Activity against contractions induced by low K⁺ concentrations in the isolated rat aorta
Thoracic aorta was removed from rats and transverse strips, denuded of endothelium, were suspended in a bath containing Krebs solution. The tension was recorded and a contraction induced by addition of 20 mM K⁺ (potassium ion) to the bathing solution. The test compound was added to the bath as a solution in increasing cumulative concentration. The concentration in the bathing solution of the test compound which reduced the K⁺-induced contraction by 90% was determined and expressed in µM as the effective concentration (EC₉₀), given in Table I.

Assay [1] concerns histamine-induced bronchospasm. The experiment in a line: Histamine-induced bronchospasm in the anaesthetised guinea pig (method of Dixon and Brodie), nebulised aerosol. In kind it is in vivo. The conditions noted are these: nebulised aerosol for 1 minute, control 80. The method, then:
(§1) In in vivo tests in the anaesthetised guinea pig, performed according to the method of Dixon W.E. and Brodie T.G., J. Physiol 29, pp 97-173 (1903), Compound BD affected histamine-induced bronchospasm and blood pressure as follows:-
(§2) A nebulised aerosol generated from an aqueous solution having a given concentration was administered for 1 minute to the anaesthetised guinea pigs.

The subject of a further assay is blood pressure. The experiment in a line: Blood pressure in the anaesthetised guinea pig (same experiment as bronchospasm test). As to conditions: nebulised aerosol for 1 minute, control 42. It counts as in vivo. As to the method:
as §1, §2

On to `CNC(=S)C1(c2cnc3ccccc3c2)CCCCC1=O` (racemic) [Compound B, (±)-N-methyl-2-oxo-1-(3-quinolinyl)cyclohexanecarbothioamide], for which the EC90 in the assay with isolated rat aorta is 70 nM. As to `CNC(=S)C1(c2cccnc2)CCCCC1=O` (racemic) [Compound A, (±)-N-methyl-2-oxo-1-(3-pyridyl)cyclohexanecarbothioamide], in the assay on isolated rat aorta, the EC90 came out at 800 nM.

With `CCNC(=S)C1(c2cccnc2)CCCCC1=O` (racemic) [T, (±)-N-ethyl-2-oxo-1-(3-pyridyl)cyclohexanecarbothioamide], in the assay on isolated rat aorta, the EC90 was 300 nM. The same measure, in the same setting: the figure for “(±)-trans-N-methyl-2-hydroxy-1-(3-pyridyl)cyclohexanecarbothioamide” is 7500 nM; for `CNC(=S)C1(c2cccnc2)CCCC/C1=N\OC` (racemic) [Compound G, (±)-anti-N-methyl-2-methoxyimino-1-(3-pyridyl)cyclohexanecarbothioamide] it is 300 nM. Regarding `CNC(=S)C1(c2cccnc2)CCC/C1=N\OCc1ccc(F)cc1` (racemic) [Compound BD, (±)-anti-N-methyl-2-(4-fluorobenzyloxyimino)-1-(3-pyridyl)cyclopentanecarbothioamide], the results for the “% maximum bronchospasm” value in assay [1] (100µg/ml aqueous solution), in assay [1] (300µg/ml aqueous solution) and in assay [1] (1000µg/ml aqueous solution) were 76%, 46% and 22%, respectively. In addition, the B.P. stood at 49 mmHg with blood pressure (100µg/ml aqueous solution), 43 mmHg in the assay on blood pressure (300µg/ml aqueous solution) and 40 mmHg in the assay with blood pressure (1000µg/ml aqueous solution). In the case of “(±)-cis-N-methyl-2-hydroxy-1-(3-pyridyl)cyclohexanecarbothioamide”, the EC90 with isolated rat aorta came out at 24000 nM.

In the case of `CNC(=S)C1(c2cccnc2)CCCC/C1=N\OCc1ccccc1` (racemic) [Compound H, (±)-anti-N-methyl-2-benzyloxyimino-1-(3-pyridyl)cyclohexanecarbothioamide], the EC90 in the assay with isolated rat aorta was found to be 10 nM. Take `CNC(=S)[C@]1(c2cnc3ccccc3c2)CCCC/C1=N\N1CCC[C@H]1COC` [Compound J, (2S)-anti-2-(methoxymethyl)-1-[2′-(3-quinolinyl)-2′-methylthiocarbamoylcyclohexylideneamino]pyrrolidine]: the EC90 with isolated rat aorta was determined as 300 nM. Still for that read-out and setting: the same measure for `CNC(=S)C1(c2ccc(Cl)nc2)CCCCC1=O` (racemic) [Compound R, (±)-N-methyl-2-oxo-1-(6-chloropyrid-3-yl)cyclohexanecarbothioamide]: 240 nM; for `CNC(=S)C1(c2cncc(Br)c2)CCCCC1=O` (racemic) [Compound S, (±)-N-methyl-2-oxo-1-(5-bromopyrid-3-yl)cyclohexanecarbothioamide]: 400 nM.
